The source of these data is ChEMBL document CHEMBL3244023, “A structure-carcinogenicity study of 4-nitroquinoline 1-oxides using the SIMCA method of pattern recognition” (J Med Chem, 1978).

The structures appear in SMILES notation.

The nature of data set [1]: Lipophilicy, log P of the compound. In kind it is physicochemical. The note with it: octanol/water.
The subject of data set [2] is Mus musculus. Put plainly: Carcinogenicity in mouse assessed as tumor development administered sc in left groin 6 times at 10-day interval. In kind it is toxicity, organism-based. The conditions noted are these: in vivo.

As for `CC(C)(C)c1ccc2c(c1)c([N+](=O)[O-])cc[n+]2[O-]`, in data set [1], the logP was 3.06.
As for `Cc1cccc2c1c([N+](=O)[O-])cc[n+]2[O-]`, the Activity result in data set [2] is “Toxic”. In data set [1], the logP came to 1.25.
For `O=[N+]([O-])c1cc[n+]([O-])c2ccccc12` [4-NITROQUINOLINE-1-OXIDE], in that order: “Toxic” and 1.01.
For `CCCCc1ccc2c(c1)c([N+](=O)[O-])cc[n+]2[O-]`, in that order: “Toxic” and 3.11.
For `O=[N+]([O-])c1cc[n+]([O-])c2cc(Cl)ccc12`, in that order: “Toxic” and 1.75.
For `O=[N+]([O-])c1cccc2c1c([N+](=O)[O-])cc[n+]2[O-]`, in data set [1], the logP is 0.95.
In the case of `O=[N+]([O-])c1cc[n+]([O-])c2ccc(Cl)cc12`, the Activity entry in data set [2] is given as “Toxic”. The compound also had a logP in data set [1] of 1.4.
For `COc1c[n+]([O-])c2ccccc2c1[N+](=O)[O-]`, in that order: “Non-toxic” and 0.43.
For `CCCCc1ccc2c(c1)c(NO)cc[n+]2[O-]`, the Activity result in data set [2] is listed as “Toxic”. This compound registered a logP in data set [1] of 2.1.
In the case of `Cc1ccc2c([N+](=O)[O-])cc[n+]([O-])c2c1`, in data set [2], the Activity result was “Toxic”. Further, the logP in data set [1] amounted to 1.49.
For `O=[N+]([O-])c1c(F)c[n+]([O-])c2ccccc12`, the logP in data set [1] stood at 1.25.
Same read-out and setting: the result for `O=[N+]([O-])c1c(Cl)c[n+]([O-])c2ccccc12` reads 1.33.
In the case of `O=[N+]([O-])c1cc[n+]([O-])c2ccc(C3CCCCC3)cc12`, in data set [2], the Activity result is given as “Non-toxic”. In data set [1], this compound yielded a logP of 2.8.
With `O=[N+]([O-])c1ccc2c(c1)c([N+](=O)[O-])cc[n+]2[O-]`, the logP in data set [1] is 0.9.
As for `Cc1cccc2c([N+](=O)[O-])cc[n+]([O-])c12`, in data set [2], the Activity entry is listed as “Toxic”. The compound further had a logP in data set [1] of 1.48.
For `O=[N+]([O-])c1c(Br)c[n+]([O-])c2ccccc12`, in that order: “Toxic” and 1.99.
For `O=[N+]([O-])c1cc[n+]([O-])c2c([N+](=O)[O-])cccc12`, in that order: “Non-toxic” and 0.76.
In data set [1], `CCc1c(C)c([N+](=O)[O-])c2ccccc2[n+]1[O-]` yielded a logP of 2.56.
With `O=[N+]([O-])c1cc[n+]([O-])c2cccc(Cl)c12`, the Activity result in data set [2] was “Toxic”. This compound had a logP in data set [1] of 1.75.
In the case of `CCc1cc([N+](=O)[O-])c2ccccc2[n+]1[O-]`, the Activity result in data set [2] is reported as “Toxic”. Also, the logP in data set [1] is 1.76.
On to `O=C(O)c1ccc2c(c1)c([N+](=O)[O-])cc[n+]2[O-]`, for which, in data set [1], the logP amounted to 0.42.
Consider `Cc1ccc2c(c1)c([N+](=O)[O-])cc[n+]2[O-]`, for which, in data set [2], the Activity result is reported as “Toxic”. In addition, the logP in data set [1] was found to be 1.24.
For `O=[N+]([O-])c1cc[n+]([O-])c2cc(Cl)c(Cl)cc12`, in that order: “Toxic” and 2.49.
For `O=[N+]([O-])c1ccc2c(c1)c(NO)cc[n+]2[O-]`, in that order: “Toxic” and -0.28.
Compound `O=[N+]([O-])c1cc[n+]([O-])c2c(F)cccc12` came in with a logP in data set [1] of 1.
As for `Cc1cc([N+](=O)[O-])c2ccccc2[n+]1[O-]`, the Activity result in data set [2] is given as “Toxic”. This compound showed a logP in data set [1] of 1.25.
For `CC(C)(C)c1ccc2c(c1)c(NO)cc[n+]2[O-]`, in that order: “Non-toxic” and 2.05.
For `CCCCCCc1ccc2c(c1)c([N+](=O)[O-])cc[n+]2[O-]`, in that order: “Non-toxic” and 3.26.
Take `Cc1c[n+]([O-])c2ccccc2c1[N+](=O)[O-]`: the logP in data set [1] was 1.24.
Take `[O-][n+]1ccc(NO)c2cc(C3CCCCC3)ccc21`: in data set [2], the Activity result is recorded as “Non-toxic”. The logP in data set [1] was 2.89.
For `CCCCCCc1ccc2c(c1)c(NO)cc[n+]2[O-]`, in that order: “Non-toxic” and 3.35.
For `O=[N+]([O-])c1ccc2c([N+](=O)[O-])cc[n+]([O-])c2c1`, in that order: “Non-toxic” and 0.45.
Take `CC(C)(C)c1cc([N+](=O)[O-])c2ccccc2[n+]1[O-]`: the logP in data set [1] was 1.07.

One may read the logP as the decadic logarithm of the partition coefficient of the neutral form, usually between octanol and water. Read a high logP as higher lipophilicity.
